Marks after values point to notes of the source that are not given here.
Assays:
[1] = biological target: T1, FLT3 (h) (Homo sapiens, UniProt P36888); experiment: FLT3 (h) kinase assay; format: biochemical; settings: [γ-33P-ATP] 10 μM or KM values; cells of the FLT3 (h) column without (Flt4) tag
T1 construct: purchased Millipore UK Ltd (assays performed there as a service)
T1 sequence (P36888 27-993): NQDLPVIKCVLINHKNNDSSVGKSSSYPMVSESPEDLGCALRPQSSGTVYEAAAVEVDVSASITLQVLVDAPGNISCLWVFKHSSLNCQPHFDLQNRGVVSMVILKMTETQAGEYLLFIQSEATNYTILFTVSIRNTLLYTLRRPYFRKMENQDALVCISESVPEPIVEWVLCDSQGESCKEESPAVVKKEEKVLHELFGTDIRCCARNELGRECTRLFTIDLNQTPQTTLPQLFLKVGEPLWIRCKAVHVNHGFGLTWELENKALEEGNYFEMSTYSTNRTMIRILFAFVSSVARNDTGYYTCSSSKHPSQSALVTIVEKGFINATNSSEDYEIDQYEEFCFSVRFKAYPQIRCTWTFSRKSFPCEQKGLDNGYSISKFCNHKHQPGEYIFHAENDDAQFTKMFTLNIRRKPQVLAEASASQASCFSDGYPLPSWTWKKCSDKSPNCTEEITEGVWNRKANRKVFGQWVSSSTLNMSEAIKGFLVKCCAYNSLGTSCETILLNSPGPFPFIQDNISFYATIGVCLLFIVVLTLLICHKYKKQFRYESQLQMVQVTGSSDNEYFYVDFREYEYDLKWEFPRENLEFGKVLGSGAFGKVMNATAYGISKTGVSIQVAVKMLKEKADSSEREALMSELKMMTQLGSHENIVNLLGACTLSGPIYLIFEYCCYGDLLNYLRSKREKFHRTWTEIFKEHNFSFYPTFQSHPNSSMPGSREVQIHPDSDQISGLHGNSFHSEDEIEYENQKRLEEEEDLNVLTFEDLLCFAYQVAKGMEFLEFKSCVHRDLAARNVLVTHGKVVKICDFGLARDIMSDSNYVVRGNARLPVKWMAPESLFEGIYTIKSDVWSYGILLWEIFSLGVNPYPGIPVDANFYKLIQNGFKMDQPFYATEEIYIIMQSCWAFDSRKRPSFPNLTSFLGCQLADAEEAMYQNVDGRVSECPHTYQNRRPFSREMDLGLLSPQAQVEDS
Protocol: Kinase assays can be performed by measurement of incorporation of γ-^33P ATP into immobilized myelin basic protein (MBP). High binding white 384 well plates (Greiner) are coated with MBP (Sigma # M-1891) by incubation of 60 μL well of 20 μg/mL MBP in Tris-buffered saline (TBS; 50 mM Tris pH 8.0, 138 mM NaCl, 2.7 mM KCl) for 24 h at 4° C. Plates are washed 3× with 100 μL TBS. Kinase reactions are carried out in a total volume of 34 μL in kinase buffer (according to the need to make, for example, 5 mM Hepes pH 7.6, 15 mM NaCl, 0.01% bovine gamma globulin (Sigma #1-5506), 10 mM MgCl2, 1 mM DTT, 0.02% TritonX-100). Compound dilutions are performed in DMSO and added to assay wells to a final DMSO concentration of 1%. Each data point is measured in duplicate, and at least two duplicate assays are performed for each individual compound determination. Enzyme is added to final concentrations of 10 nM or 20 nM, for example. A mixture of unlabeled ATP and γ-^33P ATP is added to start the reaction (2×10^6 cpm of γ-^33P ATP per well (3000 Ci/mmole) and 10 μM unlabeled ATP, typically. The reactions are carried out for 1 hour at room temperature with shaking. Plates are washed 7× with TBS, followed by the addition of 50 μL well scintillation fluid (Wallac). Plates are read using a Wallac Trilux counter. This is only one format of such assays; various other formats are possible, as known to one skilled in the art.
The above assay procedure can be used to determine the IC50 for inhibition and/or the inhibition constant, Ki. […] The IC50 value is estimated by preparing a 10 point curve using a ½ log dilution series (for example, a typical curve may be prepared using the following compound concentrations: 3 μM, 1 μM, 0.3 μM, 0.1 μM, 0.03 μM, 0.01 μM, 0.003 μM, 0.001 μM, 0.0003 μM and 0 μM).
FLT3 (h) is incubated with 8 mM MOPS pH 7.0, 0.2 mM EDTA, 50 μM […], 10 mM MgAcetate and [γ-^33P-ATP] […] The reaction is initiated by the addition of the MgATP mix. […]

[2] = system: PMA-induced increase in mouse ear thickness and weight; experiment: Topical PMA-induced acute atopic dermatitis in ICR mice; format: in vivo; settings: ICR female mice, 0.3 mg/ear/bid topical
Protocol: ICR female mice (20-30 g), five mice or nine mice/group, were used in this study. Five micrograms of PMA (phorbol 12-myristate 13-acetate) in 20 μL of ethanol was applied topically to the anterior and posterior surface of the right ear of each mouse. Twenty microliters of vehicle (ethanol/acetone ([…])=1/1); 0.3 mg of EX. 68 ([…]); EX. 76, EX. 50, EX. 92 or EX. 65 (0.3 mg […]) were administrated to the same areas 30 minutes before and 15 minutes after PMA application. The thickness of right ears of each mouse was measured 6 hours after PMA stimulation. Ear weight of right ears of each mouse was weighed with analytical balance Each value represents the Mean±Sem. Statistical significance compared with model groups (*P<0.05; **P<0.01). Tables 5-1, 5-2 and 5-3 listed the inhibitory effect on PMA-induced increase in mouse ear thickness and weight. The compounds of the present invention have a good inhibitory effect on PMA-induced increase in mouse ear thickness and weight.

## CCC1CN(c2ccc(C#N)cn2)CCC1Nc1nc(Nc2ccn3c(C)cnc3c2)ncc1Cl (stereo not shown) [Example 2, 6-(4-((5-chloro-2-((3-methylimidazo[1,2-a]pyridin-7-yl)amino)pyrimidin-4-yl)amino)-3-ethylpiperidin-1-yl)nicotinonitrile]
[1]
  IC50: 287 nM

## CCC1CN(c2ccc(C#N)nn2)CCC1Nc1nc(Nc2ccn3c(C)cnc3c2)ncc1Cl (stereo not shown) [Example 3, 6-(4-((5-chloro-2-((3-methylimidazo[1,2-a]pyridin-7-yl)amino)pyrimidin-4-yl)amino)-3-ethylpiperidin-1-yl)pyridazine-3-carbonitrile]
[1]
  IC50: 591 nM

## Cc1cnc2cc(Nc3ncc(Cl)c(NC4CCN(c5ccc(C#N)nn5)CC4)n3)ccn12 [Example 12, 6-(4-((5-chloro-2-((3-methylimidazo[1,2-a]pyridin-7-yl)amino)pyrimidin-4-yl)amino)piperidin-1-yl)pyridazine-3-carbonitrile]
[1]
  IC50: 667 nM

## CC(C)(O)c1cnc2cc(Nc3ncc(Cl)c(NC4CCN(c5ccc(C#N)cn5)CC4)n3)ccn12 [Example 68, 6-(4-((5-chloro-2-((3-(2-hydroxypropan-2-yl)imidazo[1,2-a]pyridin-7-yl)amino)pyrimidin-4-yl)amino)piperidin-1-yl)nicotinonitrile]
[2]
  Weight Inhibition ratio: 80.6%
[2]; 30 minutes before and 15 minutes after PMA, 6 hours after PMA, Mean±Sem
  thickness (right ear): 0.219 ± 0.007** mm
[2]; 30 minutes before and 15 minutes after PMA, Mean±Sem
  Weight (right ear): 18.11 ± 1.14* mg
[2]; 6 hours after PMA
  thickness Inhibition ratio: 86.6%

Source: patent publication US10683297B2 (Sunshine Lake Pharma Co., Ltd., priority 2017, dated 2020)
